Experimental data from the supplement of paper PMC9663587.

These cell lines were tested with C=CC(=O)Nc1ccc(C(=O)Nc2[nH]nc3c2CN(C(=O)N[C@H](CN(C)C)c2ccccc2)C3(C)C)cc1 [YKL-5-124]. Settings: not given.
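Note: breast cancer and non-malignant breast epithelial cell lines, Deep Dye Drop or Dye Drop imaging, nine half-log doses, GR normalized to time-zero plates and DMSO-only controls.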

Cell Line	GR50, 72 h
184A1	< 0.001 µM
BT20	0.0135 µM
BT474	< 0.001 µM
BT549	0.00293 µM
CAL51	0.00889 µM
CAL120	0.00898 µM
EFM19	< 0.001 µM
EVSAT	< 0.001 µM
HCC38	< 0.001 µM
HCC70	< 0.001 µM
HCC1143	< 0.001 µM
HCC1395	0.00123 µM
HCC1419	< 0.001 µM
HCC1806	< 0.001 µM
HCC1937	0.00225 µM
HCC1954	< 0.001 µM
HS578T	< 0.001 µM
HTERT_HME1	< 0.001 µM
MCF7	< 0.001 µM
MCF10A	< 0.001 µM
MCF10A (GM)	< 0.001 µM
MCF12A	0.0013 µM

Cell Line	GR50, 72 h
MDAMB231	< 0.001 µM
MDAMB361	< 0.001 µM
MDAMB415	0.00409 µM
MDAMB436	0.0324 µM
MDAMB453	< 0.001 µM
MDAMB468	< 0.001 µM
MGH312	0.00434 µM
PDX1206	0.0811 µM
PDX1258	0.00166 µM
PDXHCI002	< 0.001 µM
SKBR3	< 0.001 µM
SUM52PE	0.0453 µM
SUM149	< 0.001 µM
SUM159	< 0.001 µM
SUM185PE	0.0819 µM
SUM190PT	< 0.001 µM
SUM229PE	< 0.001 µM
SUM1315	0.0168 µM
T47D	< 0.001 µM
UACC812	< 0.001 µM
UACC893	0.00386 µM
ZR751	0.0019 µM

The cell lines below were run with CO[C@@H](C)Cn1c(=O)n(C)c2cnc3ccc(-c4cncc(C(C)(C)O)c4)cc3c21. Settings: not given.

Cell Line	GR50, 72 h
184A1	0.00147 µM
BT20	0.00613 µM
BT474	< 0.001 µM
BT549	0.00122 µM
CAL51	0.0113 µM
CAL120	0.00177 µM
CAL851	< 0.001 µM
CAMA1	< 0.001 µM
EFM19	0.00381 µM
EVSAT	0.00155 µM
HCC38	0.00435 µM
HCC70	0.00263 µM
HCC202	0.00541 µM
HCC1143	0.286 µM
HCC1187	1.12 µM
HCC1395	0.00497 µM
HCC1419	< 0.001 µM
HCC1806	0.347 µM
HCC1937	0.139 µM
HCC1954	< 0.001 µM
HS578T	< 0.001 µM
HTERT_HME1	0.00274 µM
MCF7	< 0.001 µM
MCF10A	0.163 µM
MCF10A (GM)	0.00578 µM
MCF12A	0.167 µM

Cell Line	GR50, 72 h
MDAMB175VII	< 0.001 µM
MDAMB231	0.031 µM
MDAMB330	< 0.001 µM
MDAMB361	< 0.001 µM
MDAMB415	< 0.001 µM
MDAMB453	< 0.001 µM
MDAMB468	0.0123 µM
MGH312	< 0.001 µM
PDX1206	0.00134 µM
PDX1258	0.0944 µM
PDX1328	0.00195 µM
PDXHCI002	1.82 µM
SKBR3	0.00188 µM
SUM44PE	< 0.001 µM
SUM52PE	0.0079 µM
SUM149	1.55 µM
SUM159	0.00127 µM
SUM185PE	0.00357 µM
SUM190PT	< 0.001 µM
SUM229PE	0.453 µM
SUM1315	0.00919 µM
T47D	< 0.001 µM
UACC812	< 0.001 µM
UACC893	0.00107 µM
ZR751	0.0135 µM

What follows are cell lines tested with N.N.Cl[Pt]Cl [Cisplatin]. Settings: not given.

Cell Line	GR50, 72 h
BT20	0.791 µM
BT549	1.02 µM
CAL51	2.1 µM
CAL120	2.93 µM
CAL851	1.03 µM
CAMA1	0.919 µM
HCC38	0.993 µM
HCC70	1.32 µM
HCC1143	0.837 µM
HCC1395	0.491 µM
HCC1419	1.79 µM
HCC1428	0.901 µM
HCC1500	3.45 µM
HCC1806	0.833 µM
HCC1937	0.777 µM
HCC1954	1.25 µM
HS578T	1.54 µM

Cell Line	GR50, 72 h
HTERT_HME1	1.12 µM
MCF7	9.32 µM
MCF10A	4.29 µM
MDAMB157	5.24 µM
MDAMB231	2.41 µM
MDAMB361	2.63 µM
MDAMB436	0.417 µM
MDAMB453	3.4 µM
MDAMB468	1.26 µM
PDX1258	2.56 µM
PDX1328	0.784 µM
PDXHCI002	1.73 µM
SKBR3	5.11 µM
SUM149	0.571 µM
SUM159	4.32 µM
SUM1315	1.28 µM
T47D	1.57 µM

The cell lines below were run with CC1=C(N=C(N=C1N)[C@H](CC(=O)N)NC[C@@H](C(=O)N)N)C(=O)N[C@@H]([C@H](C2=CN=CN2)OC3C(C(C(C(O3)CO)O)O)OC4C(C(C(C(O4)CO)O)OC(=O)N)O)C(=O)N[C@H](C)[C@H]([C@H](C)C(=O)N[C@@H]([C@@H](C)O)C(=O)NCCC5=NC(=CS5)C6=NC(=CS6)C(=O)NCCC[S+](C)C)O [Bleomycin]. Settings: main component drawn.

Cell Line	GR50, 72 h
BT20	0.488 µM
BT549	0.18 µM
CAL51	0.169 µM
CAL120	1.69 µM
CAL851	0.453 µM
CAMA1	1.69 µM
HCC38	0.199 µM
HCC70	0.398 µM
HCC1143	0.0482 µM
HCC1395	0.104 µM
HCC1419	4.04 µM
HCC1428	4.26 µM
HCC1500	2.28 µM
HCC1806	8.98 µM
HCC1937	0.187 µM
HCC1954	0.0438 µM
HS578T	0.252 µM

Cell Line	GR50, 72 h
HTERT_HME1	0.207 µM
MCF7	0.0772 µM
MCF10A	0.177 µM
MDAMB157	1.29 µM
MDAMB231	6.32 µM
MDAMB361	0.758 µM
MDAMB436	0.855 µM
MDAMB453	1.31 µM
MDAMB468	0.823 µM
PDX1258	0.783 µM
PDX1328	4 µM
PDXHCI002	1.16 µM
SKBR3	1.05 µM
SUM149	0.039 µM
SUM159	0.262 µM
SUM1315	0.214 µM
T47D	0.199 µM

The cell lines below were run with CC[C@@]1(O)C(=O)OCc2c1cc1n(c2=O)Cc2cc3c(CN(C)C)c(O)ccc3nc2-1 [Topotecan]. Settings: not given.

Cell Line	GR50, 72 h
BT20	0.0123 µM
BT549	0.00847 µM
CAL51	0.0191 µM
CAL120	0.00749 µM
CAL851	0.0158 µM
CAMA1	0.00321 µM
HCC38	0.00681 µM
HCC70	0.00946 µM
HCC1143	0.00941 µM
HCC1395	0.00275 µM
HCC1419	0.00719 µM
HCC1428	0.0106 µM
HCC1500	0.00546 µM
HCC1806	0.00527 µM
HCC1937	0.0155 µM
HCC1954	0.0119 µM
HS578T	0.00498 µM

Cell Line	GR50, 72 h
HTERT_HME1	0.00727 µM
MCF7	0.00604 µM
MCF10A	0.00987 µM
MDAMB157	0.00595 µM
MDAMB231	0.0297 µM
MDAMB361	0.0114 µM
MDAMB436	0.00594 µM
MDAMB453	0.00669 µM
MDAMB468	0.0158 µM
PDX1258	0.0135 µM
PDX1328	0.00592 µM
PDXHCI002	0.00665 µM
SKBR3	0.0165 µM
SUM149	0.00569 µM
SUM159	0.0182 µM
SUM1315	0.0118 µM
T47D	0.00523 µM

The cell lines below were run with Cc1cc(Nc2ncc(Cl)c(Nc3ccccc3S(=O)(=O)C(C)C)n2)c(OC(C)C)cc1C1CCNCC1 [Ceritinib/LDK378]. Settings: not given.

Cell Line	GR50, 72 h
184A1	1 µM
BT20	1.53 µM
BT474	> 10 µM
BT549	2.96 µM
CAL51	0.475 µM
CAL120	0.799 µM
CAL851	0.74 µM
CAMA1	1.8 µM
EFM19	5.52 µM
EVSAT	6.18 µM
HCC38	1.83 µM
HCC70	3.19 µM
HCC202	4.75 µM
HCC1143	1.45 µM
HCC1187	1.49 µM
HCC1395	1.6 µM
HCC1419	2.61 µM
HCC1428	1.24 µM
HCC1500	1.41 µM
HCC1569	4.5 µM
HCC1806	2.14 µM
HCC1937	3.53 µM
HCC1954	2.33 µM
HS578T	0.965 µM
HTERT_HME1	0.822 µM
MCF7	0.344 µM
MCF10A	2.99 µM
MCF12A	7.62 µM

Cell Line	GR50, 72 h
MDAMB157	0.484 µM
MDAMB175VII	2.56 µM
MDAMB231	0.866 µM
MDAMB330	1.13 µM
MDAMB361	0.266 µM
MDAMB415	3.76 µM
MDAMB436	0.499 µM
MDAMB453	0.37 µM
MDAMB468	0.767 µM
MGH312	1.23 µM
PDX1258	2.08 µM
PDX1328	0.629 µM
PDXHCI002	0.338 µM
SKBR3	0.985 µM
SUM44PE	2.56 µM
SUM52PE	> 10 µM
SUM149	1.7 µM
SUM159	2.1 µM
SUM185PE	0.983 µM
SUM190PT	0.528 µM
SUM229PE	1.68 µM
SUM1315	0.669 µM
T47D	1.56 µM
UACC812	3.48 µM
UACC893	> 10 µM
ZR751	3.79 µM
ZR7530	1.75 µM

Each cell line was assayed with COc1cc([C@@H]2c3cc4c(cc3[C@@H](O[C@@H]3O[C@@H]5CO[C@@H](C)O[C@H]5[C@H](O)[C@H]3O)[C@H]3COC(=O)[C@H]23)OCO4)cc(OC)c1O [Etoposide]. Settings: not given.

Cell Line	GR50, 72 h
BT20	0.301 µM
BT549	0.181 µM
CAL51	0.24 µM
CAL120	0.48 µM
CAL851	0.416 µM
CAMA1	0.155 µM
HCC38	0.334 µM
HCC70	0.365 µM
HCC1143	0.463 µM
HCC1395	0.42 µM
HCC1419	0.736 µM
HCC1428	0.214 µM
HCC1500	1.43 µM
HCC1806	0.0964 µM
HCC1937	0.355 µM
HCC1954	0.171 µM
HS578T	0.413 µM
HTERT_HME1	0.138 µM
MCF7	0.135 µM
